Assay [1] deals with T1, HIV integrase (recombinant integrase) (Human immunodeficiency virus type 1 group M subtype B, UniProt P04585).
T1 construct: Assays for the strand transfer activity of integrase were conducted in accordance with WO 02/30930 for recombinant integrase
Nature of the assay: HIV integrase assay: strand transfer catalyzed by recombinant integrase. The assay is classed as biochemical. The following applies: per WO 02/30930, read-out: IC50, inhibition of strand transfer activity of integrase. As to the method:
Assays for the strand transfer activity of integrase were conducted in accordance with WO 02/30930 for recombinant integrase.
Further description on conducting the assay using preassembled complexes is found in Wolfe, A. L. et al., J. Virol. 1996, 70: 1424-1432, Hazuda et al., J. Virol. 1997, 71: 7005-7011; Hazuda et al., Drug Design and Discovery 1997, 15: 17-24; and Hazuda et al., Science 2000, 287: 646-650.

Assay [2] relates to HIV. Nature of the assay: Assay for inhibition of HIV replication (acute HIV infection of T-lymphoid cells). The following applies: Human immunodeficiency virus 1. The class given is cell-based. As to the method:
Assays for the inhibition of acute HIV infection of T-lymphoid cells were conducted in accordance with Vacca, J. P. et al., Proc. Natl. Acad. Sci. USA 1994, 91: 4096.

Some results are limits rather than exact numbers.

One may read the IC50 as the concentration that gives 50% inhibition. In general, IC95 refers to the concentration at which the effect reaches the 95% level. The low end stands for greater potency, the high end for weaker potency. As to `O=C1C2=C(O)C(=O)N(C3CC3)CC2CCN1Cc1ccc(F)c(Cl)c1` (racemic) [Example 18, 2-(3-Chloro-4-fluorobenzyl)-8-hydroxy-6-cyclopropyl-2,3,4,4a,5,6-hexahydro-2,6-naphthyridine-1,7-dione], the IC50 in assay [1] was not above 1 µM. The same compound registered an IC95 in assay [2] not above 10 µM.
As to `CC[C@@H]1[C@@H]2CCN(Cc3ccc(F)cc3)C(=O)C2=C(O)C(=O)N1C` (relative stereo) [Example 6, (Cis-4a,5)-5-Ethyl-2-(4-fluorobenzyl)-8-hydroxy-6-methyl-2,3,4,4a,5,6-hexahydro-2,6-naphthyridine-1,7-dione], in assay [1], the IC50 was not above 1 µM. The compound also returned an IC95 in assay [2] not above 10 µM.
Turning to `CC[C@@H]1[C@H]2CCN(Cc3ccc(F)cc3)C(=O)C2=C(O)C(=O)N1C` (relative stereo) [Example 7, (Trans-4a,5)-5-Ethyl-2-(4-fluorobenzyl)-8-hydroxy-6-methyl-2,3,4,4a,5,6-hexahydro-2,6-naphthyridine-1,7-dione], the IC50 in assay [1] was not above 1 µM. The IC95 in assay [2] was not above 10 µM.
For `CN1C(=O)C(O)=C2C(=O)N(Cc3ccc(F)cc3)CCC2C1C(=O)OC(C)(C)C` (single isomer, unassigned) [Example 4, 5-(tert-Butyloxycarbonyl)-2-(4-fluorobenzyl)-8-hydroxy-6-methyl-2,3,4,4a,5,6-hexahydro-2,6-naphthyridine-1,7-dione] the same measures were not above 1 µM and not above 10 µM.
For `CN1C(=O)C(O)=C2C(=O)N(Cc3ccc(F)cc3)CCC2C1c1ncccn1` (single isomer, unassigned) [first eluting enantiomer of Example 17, 5-(Pyrimidin-2-yl)-2-(4-fluorobenzyl)-8-hydroxy-6-methyl-2,3,4,4a,5,6-hexahydro-2,6-naphthyridine-1,7-dione], in that order: not above 1 µM and not above 10 µM.
On to `CN1CC2CCN(Cc3ccc(F)cc3)C(=O)C2=C(O)C1=O` (stereo not drawn) [Example 1, 2-(4-Fluorobenzyl)-8-hydroxy-6-methyl-2,3,4,4a,5,6-hexahydro-2,6-naphthyridine-1,7-dione], for which the IC50 in assay [1] is not above 1 µM. This compound yielded a 95% effect concentration (IC95) in assay [2] not above 10 µM.
For `CN1C(=O)C(O)=C2C(=O)N(Cc3ccc(F)cc3)CCC2C1(C)C` (stereo not drawn) [Example 2, 2-(4-Fluorobenzyl)-8-hydroxy-5,5,6-trimethyl-2,3,4,4a,5,6-hexahydro-2,6-naphthyridine-1,7-dione] the same measures were not above 1 µM and not above 10 µM.
For `CN1CC2(c3ccccc3)CCN(Cc3ccc(F)cc3)C(=O)C2=C(O)C1=O` (stereo not drawn) [Example 3, 2-(4-Fluorobenzyl)-8-hydroxy-6-methyl-4-a-phenyl-2,3,4,4a,5,6-hexahydro-2,6-naphthyridine-1,7-dione] the same measures were not above 1 µM and not above 10 µM.
For `CCC1NC(=O)C(O)=C2C(=O)N(Cc3ccc(F)cc3)CCC21` (stereo not drawn) [Example 5] the same measures were not above 1 µM and not above 10 µM.
In the case of `CC1(C)C2CCN(Cc3ccc(F)cc3)C(=O)C2=C(O)C(=O)N1CC1CC1` (stereo not drawn) [Example 8, 6-(Cyclopropylmethyl)-2-(4-fluorobenzyl)-8-hydroxy-5,5-dimethyl-2,3,4,4a,5,6-hexahydro-2,6-naphthyridine-1,7-dione], the IC50 in assay [1] was not above 1 µM. For the same compound, in assay [2], the IC95 was not above 10 µM.
Consider `CN(C)C(=O)C1C2CCN(Cc3ccc(F)cc3)C(=O)C2=C(O)C(=O)N1C` (stereo not drawn) [Example 9, 5-(Dimethylaminocarbonyl)-2-(4-fluorobenzyl)-8-hydroxy-6-methyl-2,3,4,4a,5,6-hexahydro-2,6-naphthyridine-1,7-dione], for which, in assay [1], the IC50 is not above 1 µM. Besides, the IC95 in assay [2] was not above 10 µM.
For the compound `CN1C(=O)C(O)=C2C(=O)N(Cc3ccc(F)c(Cl)c3)CCC2C1(C)C` (stereo not drawn) [Example 10], the IC50 in assay [1] was not above 1 µM. For the same compound, the IC95 in assay [2] was not above 10 µM.
For `CN1C(=O)C(O)=C2C(=O)N(Cc3ccc(F)cc3)CCC2C12CCCC2` (stereo not drawn) [Example 11] the same measures were not above 1 µM and not above 10 µM.
For `CN1C(=O)C(O)=C2C(=O)N(Cc3ccc(F)c(F)c3)CCC2C1(C)C` (stereo not drawn) [Example 12] the same measures were not above 1 µM and not above 10 µM.
As to `CN1C(=O)C(O)=C2C(=O)N(Cc3ccc(F)cc3)CCC2C12CCC2` (stereo not drawn) [Example 13], the IC50 in assay [1] is not above 1 µM. This compound came in with an IC95 in assay [2] not above 10 µM.
For `CC(C)CNC(=O)C1C2CCN(Cc3ccc(F)cc3)C(=O)C2=C(O)C(=O)N1C` (stereo not drawn) [Example 14], in that order: not above 1 µM and not above 10 µM.
For `CN1C(=O)C(O)=C2C(=O)N(Cc3ccc(F)cc3)CCC2C1C(=O)NC(C)(C)C` (stereo not drawn) [Example 15] the same measures were not above 1 µM and not above 10 µM.
For `CN1C(=O)C(O)=C2C(=O)N(Cc3ccc(F)cc3)CCC2C1C(=O)NCc1ccccn1` (stereo not drawn) [Example 16], the IC50 in assay [1] was not above 1 µM. The compound further gave an IC95 in assay [2] not above 10 µM.

The values above are taken from patent publication US7619086B2 (Merck & Co., Inc., priority 2004, dated 2009).
